US20230027361A1, “METTL3 MODULATORS” (priority 2019, published 2023)
Where two headings read alike, the source gives them in different places.

What was measured:
[1] = target: METTL3/METTL14 (Homo sapiens, UniProt Q86U44); assay: METTL3-14 Standard Enzyme Assay (METTL3 biochemical assay)
How it was run: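 METTL3/METTL14 at 2.5 nM, preincubated 5 min with compound in 20 mM HEPES pH 7.5, 50 mM KCl, 250 μM MgCl2, 1 mM DTT, at ambient temperature. Started with 100 nM 3′-biotinylated RNA and 100 nM ³H-SAM, quenched at 30 min with 15 μM cold SAM. Methylation read by scintillation on streptavidin flashplates.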

[2] = target: METTL1/WDR4 (Homo sapiens, UniProt Q9UBP6); assay: METTL1 Assay (METTL1 biochemical assay)
Sequence of METTL1/WDR4 (Q9UBP6 whole entry, species assumed): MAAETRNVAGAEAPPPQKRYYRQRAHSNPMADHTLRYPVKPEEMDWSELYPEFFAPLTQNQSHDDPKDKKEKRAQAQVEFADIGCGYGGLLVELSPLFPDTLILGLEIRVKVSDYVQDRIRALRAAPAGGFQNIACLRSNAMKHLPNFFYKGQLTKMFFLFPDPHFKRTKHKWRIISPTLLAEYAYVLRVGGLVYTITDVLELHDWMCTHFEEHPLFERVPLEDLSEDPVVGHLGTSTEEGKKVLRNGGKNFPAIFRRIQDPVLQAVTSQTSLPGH
Sequence of METTL1/WDR4 (P57081 whole entry partner, species assumed): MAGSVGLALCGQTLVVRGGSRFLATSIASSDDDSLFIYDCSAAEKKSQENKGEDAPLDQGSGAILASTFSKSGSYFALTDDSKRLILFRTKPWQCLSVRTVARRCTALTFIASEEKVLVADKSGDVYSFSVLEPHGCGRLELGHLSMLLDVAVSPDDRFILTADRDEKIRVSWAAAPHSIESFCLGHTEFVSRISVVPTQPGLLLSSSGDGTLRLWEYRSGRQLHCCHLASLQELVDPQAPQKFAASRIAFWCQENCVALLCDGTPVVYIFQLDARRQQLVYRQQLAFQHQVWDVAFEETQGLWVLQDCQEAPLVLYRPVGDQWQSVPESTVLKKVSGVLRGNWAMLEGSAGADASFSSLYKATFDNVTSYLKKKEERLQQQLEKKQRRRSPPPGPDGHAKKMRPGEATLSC
Method: Assays were performed in a 25 μl-volume in 384-well V-bottom polypropylene microplates (Greiner Bio-One, cat. No. 781280) at ambient temperature. Optimized 1× assay buffer was 20 mM HEPES pH 7.5, 50 mM KCl, 250 μM MgCl2, 1 mM DTT, 0.01% Tween, 0.01% BSG, 0.004 U/μl RNAseOUT (cat. No. 10777019, ThermoFisher Scientific, Waltham, Mass.). For compound screening METTL1/WDR4 (final concentration, f.c.=6.25 nM) was added using a Multidrop Combi (ThermoFisher Scientific, Waltham, Mass.) and preincubated for 5 min. Reactions were started by adding 3′ biotinylated RNA ([…]-biotin) (f.c.=25 nM) and 3H-SAM (f.c.=60 nM) substrates. Reactions proceeded for 20 minutes and were quenched with excess non-radioactive SAM (f.c.=15 μM). The reactions were then transferred to streptavidin-coated flashplates and incubated for 2 hours at 25° C. Following two washing cycles with 0.1% Tween-20, the plates were sealed and read on a TopCount (PerkinElmer, Waltham, Mass.) plate-based scintillation counter. For determination of kinetic parameters, reaction times were optimized so that measurements were taken during the initial velocity phase of the reaction.

[3] = target: PRMT5-MEP50 (Homo sapiens, UniProt O14744); assay: PRMT5 Assay (PRMT5 biochemical assay)
Sequence of PRMT5-MEP50 (O14744 whole entry): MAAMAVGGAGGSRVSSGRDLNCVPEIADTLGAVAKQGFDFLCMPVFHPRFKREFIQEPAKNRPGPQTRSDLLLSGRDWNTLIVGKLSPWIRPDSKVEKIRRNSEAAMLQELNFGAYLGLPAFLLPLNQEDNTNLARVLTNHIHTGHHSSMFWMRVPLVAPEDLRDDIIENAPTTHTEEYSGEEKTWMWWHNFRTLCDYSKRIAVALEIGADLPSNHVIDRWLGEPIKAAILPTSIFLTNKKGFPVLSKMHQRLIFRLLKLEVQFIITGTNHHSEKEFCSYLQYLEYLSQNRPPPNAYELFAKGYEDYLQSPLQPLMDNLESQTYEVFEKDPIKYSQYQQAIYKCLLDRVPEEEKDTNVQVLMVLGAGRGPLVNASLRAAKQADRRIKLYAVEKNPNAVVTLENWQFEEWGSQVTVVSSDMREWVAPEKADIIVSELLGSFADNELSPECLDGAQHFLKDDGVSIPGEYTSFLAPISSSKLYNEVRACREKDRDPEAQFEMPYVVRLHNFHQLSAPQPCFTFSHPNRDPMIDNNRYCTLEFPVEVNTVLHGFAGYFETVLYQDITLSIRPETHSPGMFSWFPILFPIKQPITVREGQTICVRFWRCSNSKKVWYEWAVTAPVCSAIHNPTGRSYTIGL
Sequence of PRMT5-MEP50 (Q9BQA1 whole entry partner): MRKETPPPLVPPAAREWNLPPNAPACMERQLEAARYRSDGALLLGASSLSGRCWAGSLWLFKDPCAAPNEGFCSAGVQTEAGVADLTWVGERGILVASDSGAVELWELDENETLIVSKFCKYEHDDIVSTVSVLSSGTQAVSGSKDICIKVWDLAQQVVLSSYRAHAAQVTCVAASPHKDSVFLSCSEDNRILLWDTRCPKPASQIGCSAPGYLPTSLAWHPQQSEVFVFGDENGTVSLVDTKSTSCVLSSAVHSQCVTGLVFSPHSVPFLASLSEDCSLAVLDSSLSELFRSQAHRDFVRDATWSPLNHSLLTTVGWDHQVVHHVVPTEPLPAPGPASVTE
How it was run: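 PRMT5-MEP50 (2.5 nM final) preincubated 5 min with compound, then reacted 60 min at ambient temperature with 100 nM biotinylated N-acetyl histone H4 peptide and 250 nM 3H-SAM in 20 mM Tris-HCl pH 8.0, 1 mM DTT, 0.01% Tween. Quenched with 15 μM cold SAM; methylated peptide captured on streptavidin flashplates, scintillation counted.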

[4] = system: MOLM-13 cells; assay: MOLM-13 96 Hour Cell Proliferation Assay; type: cell-based
Method: MOLM-13 (DSMZ) cells were seeded at 600 cells per well in a volume of 44 μL in a Greiner Bio-One CELLSTAR™ 384 Well Polystyrene Cell Culture clear bottom microplate in RPMI 1640 media containing 10% fetal bovine serum using a Multidrop Combi (ThermoFisher Scientific). Cells were incubated overnight at 37° C. in a humidified tissue culture incubator. To prevent evaporation or to reduce edge effect, add 50 μL or more H2O to an empty plate, cover, and place on top of the cell plates. The Mosquito® HTS Liquid Handler was used to make a compound/media intermediate plate by aliquoting 1 μL of compound from the initial compound dilution plate (concentrations ranging from 10.0 mM to 38.0 nM in 100% DMSO) into Bio-One 384-well polypropylene conical bottom microplate containing 49 μL of media containing the appropriate serum (50-fold dilution, 2% DMSO, compound concentrations ranging from 200.0 μM and […]). The Apricot liquid handling system was used to transfer 6.2 μL compounds from the intermediate plate into the seeding plate containing 44 μL cells (8-fold dilution spanning concentrations 25.0 μM to […], 0.25% DMSO final), and placed in a humidified tissue culture incubator at 37° C. After 96 hours, 25 μL of Cell Titer-Glo reagent (Promega) was added to each well using an Integra liquid handling system. The plate was protected from light using TopSeal-A (Black) film over the entire plate, added White Bottom seal film on the bottom of the entire plate for a better reading on the Envision, and placed on an IKA plate shaker for at 300 rpm for 10 minutes at room temperature. The plate was read on an EnVision plate reader (Perkin Elmer) using the Ultra Sensitive Luminescence protocol. Data analysis was performed by normalizing the raw luminescence units to an average of the positive control values for staurosporine (100% cell death) and the negative control values for DMSO (0% cell death). An IC50 was calculated using a 4-parameter logistic nonlinear regression model in GraphPad Prism.

[5] = system: MOLM-13 cells; assay: MOLM-13 48 Hour Cell Proliferation Assay; type: cell-based
Method: MOLM-13 (DSMZ) cells were seeded at 1000 cells per well in a volume of 44 μL in a Falcon 384-well tissue culture treated clear bottom microplate in RPMI 1640 media containing 10% fetal bovine serum using a Multidrop Combi (ThermoFisher Scientific). Cells were incubated overnight at 37° C. in a humidified tissue culture incubator. The Mosquito® HTS Liquid Handler was used to make a compound/media intermediate plate by aliquoting 1 μL of compound from the initial compound dilution plate (concentrations ranging from 10.0 mM to 38.0 nM in 100% DMSO) into a V bottom 384-well screen matrix plate containing 49 μL of media containing the appropriate serum (50-fold dilution, 2% DMSO). The Apricot liquid handling system was used to transfer 6.2 μL compounds from the intermediate plate into the Falcon 384-well tissue culture plate containing 44 μL cells (10-point, 4-fold dilution spanning concentrations 25.0 μM to […], 0.25% DMSO final), and placed in a humidified tissue culture incubator at 37° C. After 48 hours, 25 μL of Cell Titer-Glo reagent (Promega) was added to each well using a Multidrop Combi. The plate was protected from light and placed on an IKA plate shaker for at 300 rpm for 10 minutes at room temperature. The plate was read on an EnVision plate reader (Perkin Elmer) using the Ultra Sensitive Luminescence protocol. Data analysis was performed by normalizing the raw luminescence units to an average of the positive control values for staurosporine (100% cell death) and the negative control values for DMSO (0% cell death). An IC50 was calculated using a 4-parameter logistic nonlinear regression model in GraphPad Prism.

[6] = read-out: METTL3 IC50, METTL3 biochemical assay
[7] = METTL1 biochemical assay, read-out: METTL1 IC50
[8] = read-out: PRMT5 IC50, PRMT5 biochemical assay
[9] = PRMT5 biochemical assay, read-out: PRMT5 IC50
[10] = METTL3 biochemical assay, read-out: METTL3 IC50

Sequence of METTL3/METTL14 (Q86U44 whole entry, species assumed): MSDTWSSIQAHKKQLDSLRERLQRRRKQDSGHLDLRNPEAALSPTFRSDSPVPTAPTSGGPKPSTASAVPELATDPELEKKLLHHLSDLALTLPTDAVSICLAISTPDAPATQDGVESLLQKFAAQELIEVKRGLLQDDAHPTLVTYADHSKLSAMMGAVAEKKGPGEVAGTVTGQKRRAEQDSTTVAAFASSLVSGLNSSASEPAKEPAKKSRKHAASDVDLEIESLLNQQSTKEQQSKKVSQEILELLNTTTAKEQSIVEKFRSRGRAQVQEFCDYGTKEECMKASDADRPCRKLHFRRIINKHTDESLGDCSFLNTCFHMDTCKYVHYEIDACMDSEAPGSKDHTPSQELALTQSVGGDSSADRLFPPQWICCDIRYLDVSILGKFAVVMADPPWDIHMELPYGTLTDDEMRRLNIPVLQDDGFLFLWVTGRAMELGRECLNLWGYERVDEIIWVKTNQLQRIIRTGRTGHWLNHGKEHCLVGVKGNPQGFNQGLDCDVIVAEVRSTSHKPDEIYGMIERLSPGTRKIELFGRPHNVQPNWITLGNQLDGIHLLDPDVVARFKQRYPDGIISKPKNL
Sequence of METTL3/METTL14 (Q9HCE5 whole entry partner, species assumed): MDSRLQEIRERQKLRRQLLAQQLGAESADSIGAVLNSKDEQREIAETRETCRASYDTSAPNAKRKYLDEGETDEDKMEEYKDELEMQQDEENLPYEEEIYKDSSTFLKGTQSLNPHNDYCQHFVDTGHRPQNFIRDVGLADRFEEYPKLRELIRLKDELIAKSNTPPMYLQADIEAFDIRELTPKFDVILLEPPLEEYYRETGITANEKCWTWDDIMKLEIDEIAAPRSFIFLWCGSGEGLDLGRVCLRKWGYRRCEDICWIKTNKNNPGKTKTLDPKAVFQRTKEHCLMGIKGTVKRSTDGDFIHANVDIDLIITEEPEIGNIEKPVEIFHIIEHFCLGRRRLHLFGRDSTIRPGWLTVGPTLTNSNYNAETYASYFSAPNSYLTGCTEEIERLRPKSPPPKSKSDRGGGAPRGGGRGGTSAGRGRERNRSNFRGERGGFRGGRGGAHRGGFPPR

SMILES | IC50 [2, 7] | IC50 [1] | IC50 [3] | IC50 ([4]; Homo sapiens) | IC50 ([5]; Homo sapiens) | also measured
CCCC(=O)c1cn([C@@H]2O[C@H](COc3ccc4ccc(NC)nc4c3)[C@@H](O)[C@@H]2F)c2ncnc(N)c12 [I-146] | > 1 µM | – | – | – | – | IC50 [1, 6]: 0.01 to 0.1 µM; IC50 [3, 8]: > 1 µM
CNc1ccc2ccc(OC[C@H]3O[C@@H](n4cc(-c5cc(C)n(C)n5)c5c(N)ncnc54)[C@@H](F)[C@@H]3O)cc2n1 [I-147] | > 1 µM | – | – | – | – | IC50 [1, 6]: 0.01 to 0.1 µM; IC50 [3, 8]: > 1 µM
CNc1ccc2sc(CC[C@H]3O[C@@H](n4cc(-c5ccn(C)n5)c5c(N)ncnc54)[C@@H](F)[C@@H]3O)cc2n1 [I-190] | – | < 0.01 µM | 0.01 to 0.1 µM | < 1 µM | – | –
Cn1ccc(-c2cn([C@@H]3O[C@H](COc4ccc5cnc(N6CCC6)nc5c4)[C@@H](O)[C@@H]3F)c3ncnc(N)c23)n1 [I-199] | – | < 0.01 µM | > 1 µM | 1 to 10 µM | – | –
Cn1ccc(-c2cn([C@@H]3C[C@H](CCc4ccc5ccc(N6CCC6)nc5c4)[C@@H](O)[C@@H]3F)c3ncnc(N)c23)n1 [I-211] | – | < 0.01 µM | > 1 µM | < 1 µM | – | –
COCCN(C)C(=O)c1cn([C@@H]2O[C@H](COc3ccc4ccc(N5CCC5)nc4c3)[C@@H](O)[C@@H]2F)c2ncnc(N)c12 [I-217] | – | 0.01 to 0.1 µM | > 1 µM | > 10 µM | – | –
Nc1ncnc2c1c(-c1ncco1)cn2[C@@H]1O[C@H](COc2ccc3ccc(N4CCC4)nc3c2)[C@@H](O)[C@@H]1F [I-219] | – | < 0.01 µM | > 1 µM | < 1 µM | – | –
Nc1ncnc2c1c([C@H]1CCCO1)cn2[C@@H]1O[C@H](COc2ccc3ccc(N4CCC4)nc3c2)[C@@H](O)[C@@H]1F [I-225] | – | – | – | – | – | IC50 [3, 9]: > 1 µM; IC50 [5]: 1 to 10 µM; IC50 [4]: 1 to 10 µM
C=CCc1cn([C@@H]2O[C@H](COc3ccc4ccc(NC)nc4c3)[C@@H](O)[C@H]2O)c2ncnc(N)c12 [I-226] | – | – | – | – | < 1 µM | IC50 [1, 10]: < 0.01 µM; IC50 [2]: > 1 µM; IC50 [3, 9]: < 0.01 µM
CNc1ccc2ccc(OC[C@H]3O[C@H](n4cc(C(O)C5CC5)c5c(N)ncnc54)[C@H](O)[C@@H]3O)cc2n1 (some centres unmarked) [I-227] | – | – | – | – | > 10 µM | IC50 [1, 10]: < 0.01 µM; IC50 [2]: > 1 µM; IC50 [3, 9]: < 0.01 µM
CNc1ccc2ccc(OC[C@H]3O[C@@H](n4cc(-c5cccc(C)n5)c5c(N)ncnc54)[C@@H](F)[C@@H]3O)cc2n1 [I-229] | > 1 µM | < 0.01 µM | 0.01 to 0.1 µM | – | 1 to 10 µM | –
CNc1ccc2ccc(OC[C@H]3O[C@@H](n4cc(F)c5c(N)ncnc54)[C@@H](F)[C@@H]3O)cc2n1 [I-230] | – | – | – | – | 1 to 10 µM | IC50 [1, 10]: < 0.01 µM; IC50 [2]: > 1 µM; IC50 [3, 9]: 0.01 to 0.1 µM
CNc1ccc2ccc(OC[C@H]3O[C@@H](n4cc(-c5ccc(C)cn5)c5c(N)ncnc54)[C@@H](F)[C@@H]3O)cc2n1 [I-231] | > 1 µM | < 0.01 µM | 0.1 to 1 µM | – | < 1 µM | –
CNc1ccc2ccc(OC[C@H]3O[C@@H](n4cc(-c5cn(C(C)C)cn5)c5c(N)ncnc54)[C@@H](F)[C@@H]3O)cc2n1 [I-233] | > 1 µM | 0.01 to 0.1 µM | > 1 µM | – | – | –
